Data as given in ChEMBL document CHEMBL4011609, “Discovery of novel BRD4 inhibitors by high-throughput screening, crystallography, and cell-based assays” (Bioorg Med Chem Lett, 2017).
Active and inactive are the calls of the source. The calls are words filed in the database; no cut-off is given here.

Columns and labels:
[1] = biological target: T1, Bromodomain-containing protein 4 (Homo sapiens, UniProt O60885); test: Inhibition of BRD4 BD1 in human MV4-11 cells assessed as reduction in CDK6 mRNA level at 10 to 30 uM after 6 hrs by Sybr green dye based qRT-PCR analysis; format: cell-based
MV4-11 [2] = test: Induction of apoptosis in human MV4-11 cells assessed as necrotic cells at 27 uM after 72 hrs by Annexin V-FITC/propidium iodide staining based flow cytometry (reference value: 1.68 %); format: functional
MV4-11 [3] = test: Cell cycle arrest in human MV4-11 cells assessed as accumulation at G0/G1 phase at 27 uM after 24 hrs by propidium iodide/RNase staining based flow cytometry (reference value: 57.54%); format: functional
MV4-11 [4] = test: Induction of apoptosis in human MV4-11 cells assessed as apoptotic cells at 27 uM after 72 hrs by Annexin V-FITC/propidium iodide staining based flow cytometry (reference value: 3.62 %); format: functional
[5] = biological target: T1, Bromodomain-containing protein 4; test: Binding affinity to human BRD4 BD1 (49 to 170 residues) expressed in Escherichia coli BL21(DE3) assessed as change in melting temperature at 200 uM by SYPRO Orange probe-based Real-Time PCR method
[6] = biological target: T1, Bromodomain-containing protein 4; test: Binding affinity to human BRD4 BD1 (49 to 170 residues) expressed in Escherichia coli BL21(DE3) assessed as change in melting temperature at 100 uM by SYPRO Orange probe-based Real-Time PCR method
[7] = biological target: T2, Bromodomain-containing protein 7 (Homo sapiens) (UniProt Q9NPI1); test: Inhibition of BRD7 (unknown origin) at 100 uM using acetylated lysine as substrate relative to control
T2 sequence (whole entry): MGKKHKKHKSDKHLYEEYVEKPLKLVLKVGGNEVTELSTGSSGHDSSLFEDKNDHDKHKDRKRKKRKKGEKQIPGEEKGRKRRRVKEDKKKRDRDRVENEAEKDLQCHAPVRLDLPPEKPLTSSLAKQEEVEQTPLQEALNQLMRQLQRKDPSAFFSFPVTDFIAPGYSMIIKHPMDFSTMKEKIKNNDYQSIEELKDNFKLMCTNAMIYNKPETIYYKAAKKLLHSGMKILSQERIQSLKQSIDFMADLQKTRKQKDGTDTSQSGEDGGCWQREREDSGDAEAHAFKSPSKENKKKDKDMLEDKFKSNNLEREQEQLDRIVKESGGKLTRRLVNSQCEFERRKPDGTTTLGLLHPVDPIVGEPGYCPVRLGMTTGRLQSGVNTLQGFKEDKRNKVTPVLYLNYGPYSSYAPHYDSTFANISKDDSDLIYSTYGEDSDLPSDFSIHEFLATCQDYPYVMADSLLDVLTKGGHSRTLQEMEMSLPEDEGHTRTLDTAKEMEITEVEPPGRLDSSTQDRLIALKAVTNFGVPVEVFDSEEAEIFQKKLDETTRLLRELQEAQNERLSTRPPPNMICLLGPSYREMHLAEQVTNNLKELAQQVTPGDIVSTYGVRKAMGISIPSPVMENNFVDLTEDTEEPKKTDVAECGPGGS

[8] = biological target: SWI/SNF-related matrix-associated actin-dependent regulator of chromatin subfamily A member 2 (Homo sapiens) (UniProt P51531); test: Inhibition of SMARCA2 (unknown origin) at 100 uM using acetylated lysine as substrate relative to control
Chain of SWI/SNF-related matrix-associated actin-dependent regulator of chromatin subfamily A member 2 (Homo sapiens) (P51531 whole entry, the tested form may be a part): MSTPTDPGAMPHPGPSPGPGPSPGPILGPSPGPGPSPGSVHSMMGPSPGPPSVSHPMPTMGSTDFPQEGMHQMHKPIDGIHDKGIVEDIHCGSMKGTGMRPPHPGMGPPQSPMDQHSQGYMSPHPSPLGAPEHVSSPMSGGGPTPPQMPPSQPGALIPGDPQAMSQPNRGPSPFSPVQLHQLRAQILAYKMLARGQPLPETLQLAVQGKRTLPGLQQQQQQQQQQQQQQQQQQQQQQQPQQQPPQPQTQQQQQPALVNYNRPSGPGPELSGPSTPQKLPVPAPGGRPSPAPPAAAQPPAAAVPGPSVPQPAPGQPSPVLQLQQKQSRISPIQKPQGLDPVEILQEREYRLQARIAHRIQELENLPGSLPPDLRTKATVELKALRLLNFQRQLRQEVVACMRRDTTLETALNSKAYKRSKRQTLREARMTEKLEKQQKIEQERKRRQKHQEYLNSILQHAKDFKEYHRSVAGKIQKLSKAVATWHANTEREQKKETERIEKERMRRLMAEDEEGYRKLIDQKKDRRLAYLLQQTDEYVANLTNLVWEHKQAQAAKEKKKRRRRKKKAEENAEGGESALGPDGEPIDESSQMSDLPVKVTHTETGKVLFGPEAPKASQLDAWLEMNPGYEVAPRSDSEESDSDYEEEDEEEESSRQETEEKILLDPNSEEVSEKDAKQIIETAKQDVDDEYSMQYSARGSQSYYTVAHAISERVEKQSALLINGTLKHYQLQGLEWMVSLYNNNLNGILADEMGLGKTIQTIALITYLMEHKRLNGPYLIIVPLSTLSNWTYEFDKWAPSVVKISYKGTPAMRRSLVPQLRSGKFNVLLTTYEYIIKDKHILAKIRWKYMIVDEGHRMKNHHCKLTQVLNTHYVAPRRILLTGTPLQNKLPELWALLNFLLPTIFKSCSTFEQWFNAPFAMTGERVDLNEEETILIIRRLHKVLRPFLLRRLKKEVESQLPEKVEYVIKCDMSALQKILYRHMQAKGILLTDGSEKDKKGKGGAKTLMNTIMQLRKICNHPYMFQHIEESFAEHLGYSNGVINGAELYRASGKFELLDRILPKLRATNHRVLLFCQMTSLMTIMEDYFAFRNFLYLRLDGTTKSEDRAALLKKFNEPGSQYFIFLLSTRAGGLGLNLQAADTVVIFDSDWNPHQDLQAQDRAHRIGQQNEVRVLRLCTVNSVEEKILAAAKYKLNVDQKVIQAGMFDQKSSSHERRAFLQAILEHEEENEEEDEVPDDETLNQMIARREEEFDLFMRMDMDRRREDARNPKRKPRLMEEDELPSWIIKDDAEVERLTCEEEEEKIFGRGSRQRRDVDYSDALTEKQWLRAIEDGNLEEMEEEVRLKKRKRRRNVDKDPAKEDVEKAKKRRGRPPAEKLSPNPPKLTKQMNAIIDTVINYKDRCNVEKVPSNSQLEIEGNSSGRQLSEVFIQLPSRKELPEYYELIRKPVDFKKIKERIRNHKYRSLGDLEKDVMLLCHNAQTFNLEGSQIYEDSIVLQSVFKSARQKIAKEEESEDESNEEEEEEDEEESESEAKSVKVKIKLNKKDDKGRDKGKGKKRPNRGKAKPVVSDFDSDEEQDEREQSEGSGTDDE

[9] = biological target: T1, Bromodomain-containing protein 4; test: Inhibition of human BRD4-BD1 (49 to 170 residues) expressed in Escherichia coli BL21(DE3) using N-C:SGRG-K(Ac)-GG-K(Ac)-GLG-K(Ac)-GGA-K(Ac)-RHRKVGG-K(biotin) as substrate preincubated for 15 mins followed by substrate addition measured after 5 mins by AlphaScreen assay
[10] = biological target: T1, Bromodomain-containing protein 4; test: Binding affinity to human BRD4 BD1 (49 to 170 residues) expressed in Escherichia coli BL21(DE3) assessed as change in melting temperature by SYPRO Orange probe-based Real-Time PCR method
[11] = biological target: Nucleosome-remodeling factor subunit BPTF (Homo sapiens) (UniProt Q12830); test: Inhibition of FALZ (unknown origin) at 50 uM using acetylated lysine as substrate relative to control
[12] = biological target: T3, Bromodomain-containing protein 9 (Homo sapiens) (UniProt Q9H8M2); test: Inhibition of BRD9 (unknown origin) at 50 uM using acetylated lysine as substrate relative to control
T3 sequence (whole entry): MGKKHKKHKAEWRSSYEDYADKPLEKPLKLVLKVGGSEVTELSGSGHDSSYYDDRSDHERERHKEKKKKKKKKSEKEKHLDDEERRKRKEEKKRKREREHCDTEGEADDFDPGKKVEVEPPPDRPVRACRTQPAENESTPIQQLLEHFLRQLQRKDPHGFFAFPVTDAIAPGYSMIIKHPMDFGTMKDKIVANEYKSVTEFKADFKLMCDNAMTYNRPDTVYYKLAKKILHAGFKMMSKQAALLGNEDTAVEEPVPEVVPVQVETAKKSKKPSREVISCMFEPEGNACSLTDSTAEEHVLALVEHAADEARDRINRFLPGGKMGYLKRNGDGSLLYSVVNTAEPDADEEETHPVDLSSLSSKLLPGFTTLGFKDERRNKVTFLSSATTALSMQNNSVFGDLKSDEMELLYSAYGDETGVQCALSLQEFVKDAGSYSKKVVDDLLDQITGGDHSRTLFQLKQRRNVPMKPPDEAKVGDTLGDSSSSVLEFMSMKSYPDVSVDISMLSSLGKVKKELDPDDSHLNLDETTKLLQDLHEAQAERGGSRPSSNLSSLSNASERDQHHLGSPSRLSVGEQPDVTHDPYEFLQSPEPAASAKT

MV4-11 [13] = test: Antiproliferative activity against human MV4-11 cells after 3 days by Alamar blue assay; settings: MV4-11, 72 h
[14] = biological target: T1, Bromodomain-containing protein 4; test: Inhibition of BRD4 BD1 in human MV4-11 cells assessed as reduction in Bcl-2 mRNA level at 10 to 30 uM after 6 hrs by Sybr green dye based qRT-PCR analysis; format: cell-based
[15] = biological target: T1, Bromodomain-containing protein 4; test: Binding affinity to human BRD4 BD1 (49 to 170 residues) expressed in Escherichia coli BL21(DE3) assessed as change in melting temperature at 50 uM by SYPRO Orange probe-based Real-Time PCR method
MV4-11 [16] = test: Antiproliferative activity against human MV4-11 cells after 7 days by Alamar blue assay; settings: MV4-11, 168 h
[17] = biological target: Nucleosome-remodeling factor subunit BPTF (Homo sapiens) (UniProt Q12830); test: Inhibition of FALZ (unknown origin) at 100 uM using acetylated lysine as substrate relative to control
[18] = biological target: T3, Bromodomain-containing protein 9 (Homo sapiens); test: Inhibition of BRD9 (unknown origin) at 100 uM using acetylated lysine as substrate relative to control
MV4-11 [19] = test: Induction of apoptosis in human MV4-11 cells assessed as live cells at 27 uM after 72 hrs by Annexin V-FITC/propidium iodide staining based flow cytometry (reference value: 92 %); format: functional
[20] = biological target: T1, Bromodomain-containing protein 4; test: Inhibition of BRD4 BD1 in human MV4-11 cells assessed as reduction in c-Myc mRNA level at 10 to 30 uM after 6 hrs by Sybr green dye based qRT-PCR analysis; format: cell-based
MV4-11 [21] = test: Cell cycle arrest in human MV4-11 cells assessed as accumulation at G2 phase at 27 uM after 24 hrs by propidium iodide/RNase staining based flow cytometry (reference value: 10.48 %); format: functional
[22] = biological target: T1, Bromodomain-containing protein 4; test: Inhibition of BRD4 BD1 in human MV4-11 cells assessed as reduction in c-Myc expression after 6 hrs by Western blot method; format: cell-based
[23] = biological target: T2, Bromodomain-containing protein 7 (Homo sapiens); test: Inhibition of BRD7 (unknown origin) at 50 uM using acetylated lysine as substrate relative to control
[24] = biological target: SWI/SNF-related matrix-associated actin-dependent regulator of chromatin subfamily A member 2 (Homo sapiens) (UniProt P51531); test: Inhibition of SMARCA2 (unknown origin) at 50 uM using acetylated lysine as substrate relative to control
MV4-11 [25] = test: Cell cycle arrest in human MV4-11 cells assessed as accumulation at S phase at 27 uM after 24 hrs by propidium iodide/RNase staining based flow cytometry (reference value: 31.98 %); format: functional

In the case of `CN(CCCNc1cc(=O)oc2ccccc12)C(=O)c1cccs1`, the inhibition [1] is reported as “Active”, the Activity (MV4-11 [2]) is reported as 6.9% and the Activity (MV4-11 [3]) is reported as 75.23%. It also gave an Activity (MV4-11 [4]) of 10.7%, a ΔTm [5] of 7.07 °C and a ΔTm [6] of 3.06 °C. For the same molecule, the inhibition [7] was 16%, the inhibition [8] was “inactive” and the IC50 [9] was 0.81 µM. The deltaTm [10] was “Dose-dependent effect”, the inhibition [11] was “inactive” and the inhibition [12] was “inactive”. The IC50 (MV4-11 [13]) was 18.8 µM, the inhibition [14] was “Active” and the ΔTm [15] was 0.85 °C. For the same molecule, the IC50 (MV4-11 [16]) was 10 µM, the inhibition [17] was “inactive” and the inhibition [18] was 12%. For the same molecule, the Activity (MV4-11 [19]) was 76.2%, the inhibition [20] was “Active” and the Activity (MV4-11 [21]) was 5.84%. For the same molecule, the inhibition [22] was “Dose-dependent effect”, the inhibition [23] was 9% and the inhibition [24] was “inactive”. The Activity (MV4-11 [25]) was 18.93%.
